{"source": "patent US6335436B1", "about": "“Oligonucleotides active against drug-resistant bacteria” (priority 1995, dated 2002)", "assay_type_in_all_cases": "cell-based, Mycobacterium smegmatis", "key": {"M. smegmatis ATCC 607 [1]": {"tested_on": "M. smegmatis ATCC 607", "assay": "Inhibition of M. smegmatis growth in broth cultures (cell counts)", "conditions": "for Cell Numbers per ml × 10^6: no ODS"}, "M. smegmatis ATCC 607 [2]": {"tested_on": "M. smegmatis ATCC 607", "assay": "MIC of ethambutol in the presence of oligodeoxynucleotide phosphorothioates in broth cultures", "conditions": "Mycolicibacterium smegmatis, ATCC607, 336 h, read-out: MIC of ethambutol"}, "M. smegmatis mc^2155": {"tested_on": "M. smegmatis mc^2155", "assay": "MIC of ethambutol in the presence of oligodeoxynucleotide phosphorothioates in broth cultures", "conditions": "Mycolicibacterium smegmatis, 336 h, no ODS, at least 99% inhibition of cell growth during two weeks"}}, "data": [{"smiles": "N[C@@H]1CONC1=O", "note": "[D-cycloserine]", "values": [{"measurement": "Cell Numbers per ml × 10^6", "setting": "M. smegmatis ATCC 607 [1]; Table IV, free D-cycloserine 1 μg/ml alone, 24 hrs", "value": "617 × 10^6 cells per ml"}, {"measurement": "Cell Numbers per ml × 10^6", "setting": "M. smegmatis ATCC 607 [1]; Table IV, free D-cycloserine 1 μg/ml alone, 48 hrs", "value": "549 × 10^6 cells per ml"}, {"measurement": "Cell Numbers per ml × 10^6", "setting": "M. smegmatis ATCC 607 [1]; Table IV, free D-cycloserine 1 μg/ml alone, 72 hrs", "value": "504 × 10^6 cells per ml"}, {"measurement": "Cell Numbers per ml × 10^6", "setting": "M. smegmatis ATCC 607 [1]; Table IV, free D-cycloserine 5 μg/ml alone, 24 hrs", "value": "551 × 10^6 cells per ml"}, {"measurement": "Cell Numbers per ml × 10^6", "setting": "M. smegmatis ATCC 607 [1]; Table IV, free D-cycloserine 5 μg/ml alone, 48 hrs", "value": "482 × 10^6 cells per ml"}, {"measurement": "Cell Numbers per ml × 10^6", "setting": "M. smegmatis ATCC 607 [1]; Table IV, free D-cycloserine 5 μg/ml alone, 72 hrs", "value": "420 × 10^6 cells per ml"}, {"measurement": "Cell Numbers per ml × 10^6", "setting": "M. smegmatis ATCC 607 [1]; Table IV, free D-cycloserine 30 μg/ml alone, 24 hrs", "value": "363 × 10^6 cells per ml"}, {"measurement": "Cell Numbers per ml × 10^6", "setting": "M. smegmatis ATCC 607 [1]; Table IV, free D-cycloserine 30 μg/ml alone, 48 hrs", "value": "291 × 10^6 cells per ml"}, {"measurement": "Cell Numbers per ml × 10^6", "setting": "M. smegmatis ATCC 607 [1]; Table IV, free D-cycloserine 30 μg/ml alone, 72 hrs", "value": "236 × 10^6 cells per ml"}, {"measurement": "inhibition of growth", "setting": "M. smegmatis ATCC 607 [1]; free D-cycloserine in liquid medium, 1.0 μg/ml", "value": "minimal inhibition of growth"}, {"measurement": "inhibition of M. smegmatis growth", "setting": "M. smegmatis ATCC 607 [1]; free D-cycloserine in liquid medium, 10-30 μg/ml", "value": "significant inhibition"}]}, {"smiles": "CC[C@@H](CO)NCCN[C@@H](CC)CO", "note": "[Ethambutol, ethambutol]", "values": [{"measurement": "Cell Numbers per ml × 10^6", "setting": "M. smegmatis ATCC 607 [1]; Table I, ethambutol 0.5 ug/ml alone, 24 hrs", "value": "71 × 10^6 cells per ml"}, {"measurement": "Cell Numbers per ml × 10^6", "setting": "M. smegmatis ATCC 607 [1]; Table I, ethambutol 0.5 ug/ml alone, 48 hrs", "value": "240 × 10^6 cells per ml"}, {"measurement": "Cell Numbers per ml × 10^6", "setting": "M. smegmatis ATCC 607 [1]; Table I, ethambutol 0.5 ug/ml alone, 72 hrs", "value": "411 × 10^6 cells per ml"}, {"measurement": "Cell Numbers per ml × 10^6", "setting": "M. smegmatis ATCC 607 [1]; Table I, ethambutol 1 ug/ml alone, 24 hrs", "value": "39 × 10^6 cells per ml"}, {"measurement": "Cell Numbers per ml × 10^6", "setting": "M. smegmatis ATCC 607 [1]; Table I, ethambutol 1 ug/ml alone, 48 hrs", "value": "109 × 10^6 cells per ml"}, {"measurement": "Cell Numbers per ml × 10^6", "setting": "M. smegmatis ATCC 607 [1]; Table I, ethambutol 1 ug/ml alone, 72 hrs", "value": "172 × 10^6 cells per ml"}, {"measurement": "Cell Numbers per ml × 10^6", "setting": "M. smegmatis ATCC 607 [1]; Table I, ethambutol 5 ug/ml alone, 24 hrs", "value": "25 × 10^6 cells per ml"}, {"measurement": "Cell Numbers per ml × 10^6", "setting": "M. smegmatis ATCC 607 [1]; Table I, ethambutol 5 ug/ml alone, 48 hrs", "value": "68 × 10^6 cells per ml"}, {"measurement": "Cell Numbers per ml × 10^6", "setting": "M. smegmatis ATCC 607 [1]; Table I, ethambutol 5 ug/ml alone, 72 hrs", "value": "111 × 10^6 cells per ml"}, {"measurement": "Cell Numbers per ml × 10^6", "setting": "M. smegmatis ATCC 607 [1]; Table III, ethambutol 0.5 μg/ml alone, 24 hrs", "value": "77 × 10^6 cells per ml"}, {"measurement": "Cell Numbers per ml × 10^6", "setting": "M. smegmatis ATCC 607 [1]; Table III, ethambutol 0.5 μg/ml alone, 48 hrs", "value": "189 × 10^6 cells per ml"}, {"measurement": "Cell Numbers per ml × 10^6", "setting": "M. smegmatis ATCC 607 [1]; Table III, ethambutol 0.5 μg/ml alone, 72 hrs", "value": "388 × 10^6 cells per ml"}, {"measurement": "MIC", "setting": "M. smegmatis ATCC 607 [2]", "value": 25, "unit": "µg/mL"}, {"measurement": "MIC", "setting": "M. smegmatis mc^2155", "value": 30, "unit": "µg/mL"}]}]}
